Experimental data: patent US20230374148A1, “BINDING MOLECULES THAT MULTIMERISE CD45” (UCB BIOPHARMA SRL, priority 2020, published 2023)

How the values were obtained:
OCI-Ly3 = test: Apoptosis of cell lines: OCI-Ly3; format: cell-based; conditions: OCI-Ly3, 21 hrs, 500 nM
Source text: (§1) The following cell lines representing various leukaemia's and lymphoma's, as classified by ATCC (www.atcc.org/), were used: Jurkat—acute T-cell leukaemia; CCRF-SB—B-cell acute lymphoblastic leukaemia; MC116—B-cell undifferentiated lymphoma; Raji, Ramos—Burkitt lymphoma (rare form of B-cell non-Hodgkin lymphoma); SU-DHL-4, SU-DHL-5, SU-DHL-8, NU-DUL-1, OCI-Ly3—Diffuse large B-cell lymphoma; THP-1—acute monocytic leukaemia; and Dakiki—B cell nasopharyngeal carcinoma.
(§2) Prior to an assay being performed, 1 vial of each of the above cell lines was thawed in a 37° C. water bath and then added to 20 ml complete media (RPMI 1640+2 mM GlutaMAX+1% Pen/Strep, all previous supplied by Invitrogen, +10% Fetal Bovine Serum (FBS), Sigma Aldrich). Cells were spun (500 g, 5 min, at RT) and re-suspended in 20 ml complete media to wash and spun again. Cells were resuspended in 10 ml complete media and then counted using a ChemoMetec NucleoCounter NC-3000. 6×10^6 cells of each cell line were spun (500 g, 5 min, at RT) and re-suspended in 4.8 ml complete media. 1×10^5 cells in 80 μl were then added to each well of a Corning Costar 96-well, cell culture treated, U-shaped-bottom microplate (cat no. 07-200-95). The plate was rested in a 37° C., 5% CO2 incubator for 2 hrs
(§3) Stocks of 4133-6294 BYbe and NegCtrl BYbe at 2500 nM in complete media were prepared. In a Greiner 96-well non-binding microplate, both reagents were serially diluted in complete media 1 in 5, seven times to produce to form an 8-point dose curve. […] (final well concentrations 500-0.0064 nM) was added to the cells. Each concentration was produced in triplicate. Camptothecin (cat no. C9911-100MG, Sigma Aldrich) and Staurosporine (cat no. 56942-200UL, Sigma Aldrich) were added as positive controls of apoptosis. Both were diluted in complete media and added to the well to produce a final concentration of 5 μM. Additional positive controls included anti-thymocyte globulin (ATG, indicated by FDA for use in conditioning regimens), Rituximab (anti-CD20, indicated by FDA for Non-Hodgkin Lymphoma and Chronic Lymphocytic Leukaemia) and Campath (anti-CD52, indicated by FDA for B-cell Chronic Lymphocytic Leukaemia). Anti-thymocyte globulin, Rituximab and Campath were added to the wells to produce final concentrations of 200 μg/ml, 500 nM and 200 μg/ml, respectively. […]
(§4) Following the incubation, the plates were spun at 500 g, 5 min, RT, the buffer was aspirated with a BioTek ELx405 microplate washer, and the cells were re-suspended in FACS buffer (PBS+1% bovine serum albumin (BSA)+0.1% NaN3+2 mM EDTA, Sigma Aldrich) to wash and then re-spun and buffer was aspirated to leave the cells in 20 μl residual media. […] Cells were analysed using the Bio-Rad ZE5 Cell Analyzer. […]

Ramos = test: Apoptosis of cell lines: Ramos; format: cell-based; conditions: 21 hrs, 500 nM
Source text: as §1, §2, §3, §4

MC116 = test: Apoptosis of cell lines: MC116; format: cell-based; conditions: MC116, 21 hrs, 500 nM
Source text: as §1, §2, §3, §4

SU-DHL-4 = test: Apoptosis of cell lines: SU-DHL-4; format: cell-based; conditions: SU-DHL-4, 21 hrs, 500 nM
Source text: as §1, §2, §3, §4

Dakiki = test: Apoptosis of cell lines: Dakiki; format: cell-based; conditions: 21 hrs, 500 nM
Source text: as §1, §2, §3, §4

SU-DHL-5 = test: Apoptosis of cell lines: SU-DHL-5; format: cell-based; conditions: SU-DHL-5, 21 hrs, 500 nM
Source text: as §1, §2, §3, §4

CCRF-SB = test: Apoptosis of cell lines: CCRF-SB; format: cell-based; conditions: 21 hrs, 500 nM
Source text: as §1, §2, §3, §4

Raji = test: Apoptosis of cell lines: Raji; format: cell-based; conditions: 21 hrs, 500 nM
Source text: as §1, §2, §3, §4

NU-DUL-1 = test: Apoptosis of cell lines: NU-DUL-1; format: cell-based; conditions: NU-DUL-1, 21 hrs, 500 nM
Source text: as §1, §2, §3, §4

THP-1 = test: Apoptosis of cell lines: THP-1; format: cell-based; conditions: THP-1, 21 hrs, 500 nM
Source text: as §1, §2, §3, §4

SU-DHL-8 = test: Apoptosis of cell lines: SU-DHL-8; format: cell-based; conditions: SU-DHL-8, 21 hrs, 500 nM
Source text: as §1, §2, §3, §4

Jurkat = test: Apoptosis of cell lines: Jurkat; format: cell-based; conditions: 21 hrs, 500 nM
Source text: as §1, §2, §3, §4

[1] = target: T1, CD45 domains 1-4 of the extracellular domain (UniProtKB P08575, residues 225-573) with C-terminal TEV cleavage site and 10-His tag (human); test: SPR, Biacore 3000, 25 C; Fab captured by anti-mouse F(ab)2, CD45 D1-D4 titrated 50 nM to 0.05 nM
[2] = target: T1, CD45 domains 1-4 of the extracellular domain; test: SPR, Biacore 3000, 25 C; Fab captured by anti-rabbit F(ab)2, CD45 D1-D4 titrated 50 nM to 0.05 nM

For “Rituximab: anti-CD20, indicated by FDA for Non-Hodgkin Lymphoma and Chronic Lymphocytic Leukaemia; positive control [reference compound]”, the “Rituximab mean (%) cell reduction” value (OCI-Ly3) was 19.05%, the “Rituximab mean (%) cell reduction” value (Ramos) was 91.05% and the “Rituximab mean (%) cell reduction” value (MC116) was 98.13%. The “Rituximab mean (%) cell reduction” value (SU-DHL-4) was 79.76%, the “Rituximab mean (%) cell reduction” value (Dakiki) was 58.55% and the “Rituximab mean (%) cell reduction” value (SU-DHL-5) was 61.26%. For the same molecule, the “Rituximab mean (%) cell reduction” value (CCRF-SB) was 59.87%, the “Rituximab mean (%) cell reduction” value (Raji) was 87.89% and the “Rituximab mean (%) cell reduction” value (NU-DUL-1) was 87.04%. For the same molecule, the “Rituximab mean (%) cell reduction” value (THP-1) was 23.12%, the “Rituximab mean (%) cell reduction” value (SU-DHL-8) was 15.25% and the “Rituximab mean (%) cell reduction” value (Jurkat) was 6.52%.

B1: 6294 mouse Fab (Fab, V domains shown)
VH: EVQLVESGAELARPGASVKMSCKASGYTFTSYTMHWVKQRPGQGLEWIGYINPSSGYTEYNQKFKDKTTLTADKSSSTAYLQLSSLTSEDSAVYYCARVGDGFYPSWLAYWGQGTLVTVSS
VL: DIQMTQSPKFLLVSAGDRVTITCKASQSVRNDVAWYQQKPGQSPKLLIFYASKRYTGVPDRFTGSGYGTDFTFTISTVQAEDLAVYFCQQDYSSPTTFGGGTKLEIK
B1 showed a Kd [1] of 0.085 nM, a koff [1] of 0.00022 s⁻¹ and a kon [1] of 2.6e+06 M⁻¹ s⁻¹.

B2: 4133 rabbit Fab (Fab, V domains shown)
VH: QEQLVESGGGLVQPEGSLTLTCTASGFSFSGNYYMCWVRQAPGKGLEWIGCLYTGSSGSTYYASWAKGRFTISKTSSTTVTLQMTSLTAADTATYFCARDLGYEIDGYGGLWGQGTLVTVSS
VL: AQVLTQTPSPVSAVVGGTVSISCQASQSVYNNNNLSWYQQKPGQPPKLLIYDASKLASGVPSRFKGSGSGTQFTLTISGVQCDDAATYYCLGGYYSSGWYFAFGGGTKVVVKR
B2 was tested, and the Kd [2] was 61 nM, the koff [2] was 0.035 s⁻¹ and the kon [2] was 570000 M⁻¹ s⁻¹.
